This note sets out measurements from patent publication US12390505B2, “Composition for preventing or treating obesity or diabetes, comprising acanthopanax senticosus extract and garcinia cambogia extract or compound isolated therefrom” (KOREA RESEARCH INSTITUTE OF BIOSCIENCE AND BIOTECHNOLOGY, priority 2020, dated 2025).

Test [1] can be described thus: Example 11 HFD mice: serum test. The format is in vivo, mouse. The settings on record: oral once daily 10 weeks, 50 mg/kg. As to the method: After adapting 8-week-old male C57b1/6 J mice to the basic diet (AIN-76A diet) for 2 weeks, and consuming Diet Induced Obesity Diet Formulas (D12451) 60 kcal % HFD diet for 2 weeks from 10 weeks of age, and then the test drug was administered when the average body weight reached 28 g or more. The animal breeding room environment of the mouse was maintained in a constant temperature (25±2° C.), constant humidity (50±5%) and a 12-hour photoperiod (light on 07:00˜19:00) in which the light and shade were controlled in an SPF environment. […] The test drug was dispersed in 0.5% Carboxymethyl cellulose (CMC) and administered in a volume of 0.2 ml, and the drug was administered orally by force into the stomach using a metal Zonde for oral administration.
Blood was collected by cardiac puncture to conduct a blood biochemical test after the end of the final experiment, and then plasma was separated by centrifugation at 3,000 rpm and 4° C. for 15 minutes within 30 minutes after blood collection, and then stored at −74° C. for blood chemistry and ELISA analysis. The contents of total cholesterol, high-density lipoprotein (HDL), low-density lipoprotein (LDL), triglyceride, FFA, glucose, and LDH, which are indicators of lipid content, were measured using an automated biochemical analyzer (Hitachi-720, Hitachi Medical, Japan). IGF-1 and Creatine were diluted in coating buffer, coated on microwells, and left overnight at 4° C. After washing each well with the buffer solution three times, 100 μl of serum (10-fold dilution) was dispensed, left at room temperature for 1 hour, and then washed twice with the buffer solution. Thereafter, 100 μl of the antibody avidin-HRP conjugate was treated, left at room temperature for 1 hour, and then washed again. 100 μl of the TMB substrate was dispensed, left in the dark for 30 minutes, treated with 50 μl of the stop solution, and absorbance was measured at a wavelength of 450 nm using an ELISA reader.
Results obtained from various experiments are recorded as mean±standard error of mean (SEM), and significance verification is determined using the student's T-test analysis method. The data were analyzed using one-way ANOVA to determine a statistically significant variance between each group for each final point measured, and statistical significance between each group was determined using the nonparametric Mann-Whitney test and Dunnett's multiple comparison test (IBM SPSS statistics version 19.0 statistic software, Inc, IBM, USA).

Test [2] can be described thus: Example 12 HFD mice: serum test. The format is in vivo, mouse. The settings on record: serum of HFD mice, oral once daily for 10 weeks; chiisanogenin 50 mg/kg; Garcinia cambogia extract 200 mg/kg; combination 50 + 150 mg/kg; Met 50 mg/kg. On the procedure:
The test drug was dispersed in 0.5% Carboxymethyl cellulose (CMC) and administered in a volume of 0.2 ml, and the drug was administered orally by force into the stomach using a metal Zonde for oral administration. Blood was collected by cardiac puncture to conduct a blood biochemical test after the end of the final experiment, and then plasma was separated by centrifugation at 3,000 rpm and 4° C. for 15 minutes within 30 minutes after blood collection, and then stored at −74° C. for blood chemistry and ELISA analysis. The contents of total cholesterol, high-density lipoprotein (HDL), low-density lipoprotein (LDL), triglyceride, FFA, glucose, and LDH, which are indicators of lipid content, were measured using an automated biochemical analyzer (Hitachi-720, Hitachi Medical, Japan). IGF-1 and Creatine were diluted in coating buffer, coated on microwells, and left overnight at 4° C. […] 100 μl of the TMB substrate was dispensed, left in the dark for 30 minutes, treated with 50 μl of the stop solution, and absorbance was measured at a wavelength of 450 nm using an ELISA reader. Results obtained from various experiments are recorded as mean±standard error of mean (SEM), and significance verification is determined using the student's T-test analysis method. […]

`CN(C)C(=N)N=C(N)N` [Met, Metformin]: in test [1], the Cholesterol is given as 175.6 ± 9.03 mg/dL, the Creatin was 0.564 ± 0.011 mg/dL, the Glucose worked out at 202.5 ± 7.98 mg/dL and the HDL came out at 88.1 ± 2.99 mg/dL. Also, in test [1], the IGF-1 came to 1455.8 ± 138.07 pg/mL, the “Inhibition Rate (Cholesterol)” value was 40%, the “Inhibition Rate (Creatin)” value is reported as 175% and the “Inhibition Rate (Glucose)” value came to 11%. In addition, in test [1], the “Inhibition Rate (HDL)” value is reported as 7%, the “Inhibition Rate (IGF-1)” value came to 89%, the “Inhibition Rate (LDH)” value is 122% and the “Inhibition Rate (LDL)” value amounted to 71%. In addition, in test [1], the “Inhibition Rate (NEFA)” value came to 61%, the “Inhibition Rate (Triglyceride)” value is 65%, the LDH stood at 592.0 ± 53.77 U/L and the LDL is 12.3 ± 0.80 mg/dL. In test [1], this compound yielded an NEFA of 2.26 ± 0.10 mEq/L and a Triglyceride of 118.6 ± 5.90 mg/dL. The “Creatin (mg/dL), mean ± standard error” value in test [2] is on record as 0.564 ± 0.011 mg/dL.
